According to patent US4912120A, “3,5-substituted 4,5-dihydroisoxazoles as transglutaminase inhibitors” (Syntex (U.S.A.) Inc., priority 1987, dated 1990):

Legend:
[1] = test system: blackhead-like lesions and whitehead-like lesions (spontaneous acne-like condition); assay: Mexican Hairless Dog Assays; type: in vivo, Mexican hairless beagle dog; details: two dogs
Source text: To determine the utility of the compounds of Formula (I) for treating acne in mammals, one can use the procedures described by DeYoung, et al. Another model examined is the Mexican hairless beagle dog, a procedure for which is set forth in Example 10.
Gel vehicle alone was not effective.

[2] = Toxicity of the Compounds of Formula I; type: in vivo; details: 10 mg/Kg intraperitoneally daily for 14 days, 5 male and 5 female CDI mice per group
Method: Three groups, each composed of 5 male and 5 female CDI mice, were injected intraperitoneally with 10 mg/Kg of 5-(N-benzyloxycarbonyl-L-phenylalaninamidomethyl)-3-bromo-4,5-dihydroisoxazole or 5-(N-benzyloxycarbonyl-L-para-tyrosinamidomethyl)-3-chloro-4,5-dihydroisoxazole daily for 14 days.

[3] = test system: transglutaminase; details: prior-art inhibitors; cited from earlier work
[4] = test system: psoriatic plaque; assay: Psoriatic plaque chamber test (Example 13); type: in vivo, humans; details: 1% w/w in propylene glycol/Carbopol 940 gel, 0.05 ml in chamber on psoriatic plaque, five subjects, applied days 1-16, readings to day 23
Method: To determine the utility of the compounds of Formula (I) for treating psoriasis in humans, the procedure of Example 13 can be followed.
5-(N-benzyloxycarbonyl-L-phenylalaninamidomethyl)-3-bromo-4,5-dihydroisoxazole was levigated into a gel vehicle (see Example 14) to afford a concentration of 1% w/w. The gel vehicle contained primarily propylene glycol which was gelled with Carbopol 940.
0.05 ml of the gel containing active ingredient was filled into a 1 mm deep teflon chamber (Durhing chamber) which was then applied to the psoriatic plaque of each of the five subjects. The plaque was then covered with Scanpor® adhesive tape. The gel was applied on days 1, 3, 5, 8, 10, 12 and 16. Each time, fresh gel, chamber, and tape were used. Readings were taken on Days 5, 10, 12, 16 and 23 (one week off therapy). The presence or absence of a normal appearing epidermis was evaluated using a scale of 0 to 2.

[5] = 2.5% in gel (40% dimethylisosorbide, 55% ethanol, 2.5% carbomer 940)
[6] = 2.5% in gel (2.5% Klucel, 10% diisopropyl adipate, 80% ethanol, 5% propylene glycol), once daily, 14 days

For `O=C(N[C@@H](Cc1ccc(O)cc1)C(=O)NCC1CC(Br)=NO1)OCc1ccccc1` (mixture of isomers) [5-(N-benzyloxycarbonyl-L-paratyrosinamidomethyl)-3-bromo-4,5-dihydroisoxazole], the clearing of lesions [1, 5] was “positive results”.

For `O=C(N[C@@H](Cc1ccccc1)C(=O)NCC1CC(Cl)=NO1)OCc1ccccc1` (mixture of isomers) [5-(N-benzyloxycarbonyl-L-phenylalaninamidomethyl)-3-chloro-4,5-dihydroisoxazole], the clearing of lesions [1, 6] was “good clearing” and the clearing of lesions [1, 5] was “positive results”.

With `O=C(N[C@@H](Cc1ccc(O)cc1)C(=O)NCC1CC(Cl)=NO1)OCc1ccccc1` (stereo partly drawn) [5-(N-benzyloxycarbonyl-L-para-tyrosinamidomethyl)-3-chloro-4,5-dihydroisoxazole] the toxic effects [2] was “No toxic effects”.

In the case of `NCCSSCCN` [cystamine], the effective concentration [3] is listed as “greater than 10^-3 M” and the specificity for transglutaminases [3] is listed as “lacks specificity for transglutaminases”.

In the case of `O=C(N[C@@H](Cc1ccccc1)C(=O)NCC1CC(Br)=NO1)OCc1ccccc1` (mixture of isomers) [5-(N-benzyloxycarbonyl-L-phenylalaninamidomethyl)-3-bromo-4,5-dihydroisoxazole], the clearing of lesions [1, 6] is reported as “clearing of the majority of blackhead-like lesions and many whitehead-like lesions”, the clearing of lesions [1, 5] is reported as “positive results” and the toxic effects [2] is reported as “No toxic effects”. The “activity against psoriasis (presence or absence of normal appearing epidermis, scale of 0 to 2)” value [4] was “shows activity against psoriasis”.
